The source made the active and inactive calls. The rule behind the calls is not given here.
Tested on: CCRIS mutagenicity, Ames/micronucleus/aberration tests
Assay: CCRIS mutagenicity studies
[1] = Test System: AMES SALMONELLA TYPHIMURIUM, Strain/Indicator: TA98, Metabolic Activation: NONE, Method: STANDARD PLATE

c1ccc2c(c1)-c1c(ccc3ccccc13)[C@H]1N[C@@H]21
mutagenic call (Test System: AMES SALMONELLA TYPHIMURIUM, Strain/Indicator: TA98, Metabolic Activation: NONE, Method: PREINCUBATION (KCL-CONTAINING MEDIUM)): active; positive | mutagenic call (Test System: AMES SALMONELLA TYPHIMURIUM, Strain/Indicator: TA98, Metabolic Activation: NONE, Method: PREINCUBATION (KCL-FREE MEDIUM)): active; positive | mutagenic call (Test System: AMES SALMONELLA TYPHIMURIUM, Strain/Indicator: TA100, Metabolic Activation: NONE, Method: PREINCUBATION (KCL-CONTAINING MEDIUM)): active; positive | mutagenic call (Test System: AMES SALMONELLA TYPHIMURIUM, Strain/Indicator: TA100, Metabolic Activation: NONE, Method: PREINCUBATION (KCL-FREE MEDIUM)): active; positive

C=C(C)C(=O)OCC
mutagenic call (Test System: AMES SALMONELLA TYPHIMURIUM, Strain/Indicator: TA98, Metabolic Activation: HAMSTER, LIVER, S-9, AROCLOR 1254 (10%), Method: PREINCUBATION): inactive; negative | mutagenic call (Test System: AMES SALMONELLA TYPHIMURIUM, Strain/Indicator: TA98, Metabolic Activation: NONE, Method: PREINCUBATION): inactive; negative | mutagenic call [1]: inactive; negative | mutagenic call (Test System: AMES SALMONELLA TYPHIMURIUM, Strain/Indicator: TA98, Metabolic Activation: RAT, LIVER, S-9, AROCLOR 1254 (10%), Method: PREINCUBATION): inactive; negative | mutagenic call (Test System: AMES SALMONELLA TYPHIMURIUM, Strain/Indicator: TA98, Metabolic Activation: RAT, LIVER, S-9, AROCLOR 1254, Method: STANDARD PLATE): inactive; negative | mutagenic call (Test System: AMES SALMONELLA TYPHIMURIUM, Strain/Indicator: TA98, Metabolic Activation: RAT, LIVER, S-9, SODIUM PHENOBARBITAL, Method: STANDARD PLATE): inactive; negative | mutagenic call (Test System: AMES SALMONELLA TYPHIMURIUM, Strain/Indicator: TA100, Metabolic Activation: HAMSTER, LIVER, S-9, AROCLOR 1254 (10%), Method: PREINCUBATION): inactive; negative | mutagenic call (Test System: AMES SALMONELLA TYPHIMURIUM, Strain/Indicator: TA100, Metabolic Activation: NONE, Method: PREINCUBATION): inactive; negative | mutagenic call (Test System: AMES SALMONELLA TYPHIMURIUM, Strain/Indicator: TA100, Metabolic Activation: NONE, Method: STANDARD PLATE): inactive; negative | mutagenic call (Test System: AMES SALMONELLA TYPHIMURIUM, Strain/Indicator: TA100, Metabolic Activation: RAT, LIVER, S-9, AROCLOR 1254 (10%), Method: PREINCUBATION): inactive; negative | mutagenic call (Test System: AMES SALMONELLA TYPHIMURIUM, Strain/Indicator: TA100, Metabolic Activation: RAT, LIVER, S-9, AROCLOR 1254, Method: STANDARD PLATE): inactive; negative | mutagenic call (Test System: AMES SALMONELLA TYPHIMURIUM, Strain/Indicator: TA100, Metabolic Activation: RAT, LIVER, S-9, SODIUM PHENOBARBITAL, Method: STANDARD PLATE): inactive; negative | mutagenic call (Test System: AMES SALMONELLA TYPHIMURIUM, Strain/Indicator: TA1535, Metabolic Activation: HAMSTER, LIVER, S-9, AROCLOR 1254 (10%), Method: PREINCUBATION): inactive; negative | mutagenic call (Test System: AMES SALMONELLA TYPHIMURIUM, Strain/Indicator: TA1535, Metabolic Activation: NONE, Method: PREINCUBATION): inactive; negative | mutagenic call (Test System: AMES SALMONELLA TYPHIMURIUM, Strain/Indicator: TA1535, Metabolic Activation: NONE, Method: STANDARD PLATE): inactive; negative | mutagenic call (Test System: AMES SALMONELLA TYPHIMURIUM, Strain/Indicator: TA1535, Metabolic Activation: RAT, LIVER, S-9, AROCLOR 1254 (10%), Method: PREINCUBATION): inactive; negative | mutagenic call (Test System: AMES SALMONELLA TYPHIMURIUM, Strain/Indicator: TA1535, Metabolic Activation: RAT, LIVER, S-9, AROCLOR 1254, Method: STANDARD PLATE): inactive; negative | mutagenic call (Test System: AMES SALMONELLA TYPHIMURIUM, Strain/Indicator: TA1535, Metabolic Activation: RAT, LIVER, S-9, SODIUM PHENOBARBITAL, Method: STANDARD PLATE): inactive; negative | mutagenic call (Test System: AMES SALMONELLA TYPHIMURIUM, Strain/Indicator: TA1537, Metabolic Activation: HAMSTER, LIVER, S-9, AROCLOR 1254 (10%), Method: PREINCUBATION): inactive; negative | mutagenic call (Test System: AMES SALMONELLA TYPHIMURIUM, Strain/Indicator: TA1537, Metabolic Activation: NONE, Method: PREINCUBATION): inactive; negative | mutagenic call (Test System: AMES SALMONELLA TYPHIMURIUM, Strain/Indicator: TA1537, Metabolic Activation: NONE, Method: STANDARD PLATE): inactive; negative | mutagenic call (Test System: AMES SALMONELLA TYPHIMURIUM, Strain/Indicator: TA1537, Metabolic Activation: RAT, LIVER, S-9, AROCLOR 1254 (10%), Method: PREINCUBATION): inactive; negative | mutagenic call (Test System: AMES SALMONELLA TYPHIMURIUM, Strain/Indicator: TA1537, Metabolic Activation: RAT, LIVER, S-9, AROCLOR 1254, Method: STANDARD PLATE): inactive; negative | mutagenic call (Test System: AMES SALMONELLA TYPHIMURIUM, Strain/Indicator: TA1537, Metabolic Activation: RAT, LIVER, S-9, SODIUM PHENOBARBITAL, Method: STANDARD PLATE): inactive; negative | mutagenic call (Test System: AMES SALMONELLA TYPHIMURIUM, Strain/Indicator: TA1538, Metabolic Activation: NONE, Method: STANDARD PLATE): inactive; negative | mutagenic call (Test System: AMES SALMONELLA TYPHIMURIUM, Strain/Indicator: TA1538, Metabolic Activation: RAT, LIVER, S-9, AROCLOR 1254, Method: STANDARD PLATE): inactive; negative | mutagenic call (Test System: AMES SALMONELLA TYPHIMURIUM, Strain/Indicator: TA1538, Metabolic Activation: RAT, LIVER, S-9, SODIUM PHENOBARBITAL, Method: STANDARD PLATE): inactive; negative

Nc1ncnc2c1ncn2[C@@H]1O[C@H](CO)C[C@@H]1F
mutagenic call (Test System: Mouse lymphoma, Strain/Indicator: L5178Y (tk+/tk-), Metabolic Activation: None, Method: Suspension/plate): inactive; negative | mutagenic call (Test System: Mouse lymphoma, Strain/Indicator: L5178Y (tk+/tk-), Metabolic Activation: Rat, Liver, S-9, Aroclor 1254, Method: Suspension/plate): active; equivocal (previous revaluation positive)

Cc1ccc(N=O)cc1[N+](=O)[O-]
mutagenic call (Test System: AMES SALMONELLA TYPHIMURIUM, Strain/Indicator: TA98, Metabolic Activation: NONE, Method: SUSPENSION/PLATE): inactive; negative | mutagenic call (Test System: AMES SALMONELLA TYPHIMURIUM, Strain/Indicator: TA98, Metabolic Activation: RAT, LIVER, S-9, PHENOBARBITAL AND 5,6-BENZOFLAVONE, Method: SUSPENSION/PLATE): inactive; negative | mutagenic call (Test System: AMES SALMONELLA TYPHIMURIUM, Strain/Indicator: TA100, Metabolic Activation: NONE, Method: SUSPENSION/PLATE): inactive; negative | mutagenic call (Test System: AMES SALMONELLA TYPHIMURIUM, Strain/Indicator: TA100, Metabolic Activation: RAT, LIVER, S-9, PHENOBARBITAL AND 5,6-BENZOFLAVONE, Method: SUSPENSION/PLATE): inactive; negative

COC(=O)c1cc2ccc3ccc[n+](C)c3c2[nH]1
mutagenic call [1]: inactive; negative | mutagenic call (Test System: E. COLI, Strain/Indicator: WP2 TM9, Metabolic Activation: NONE, Method: STANDARD PLATE): inactive; negative

CC(C)([CH2][Sn]([CH2]C(C)(C)c1ccccc1)([CH2]C(C)(C)c1ccccc1)[O][Sn]([CH2]C(C)(C)c1ccccc1)([CH2]C(C)(C)c1ccccc1)[CH2]C(C)(C)c1ccccc1)c1ccccc1
mutagenic call (End Point: In vitro chromosomal aberrations, Test System: Human lymphocytes, Metabolic Activation: None): inactive; negative | mutagenic call (End Point: In vitro chromosomal aberrations, Test System: Human lymphocytes, Metabolic Activation: Rat, Liver, S-9, Aroclor 1254): inactive; negative | mutagenic call (End Point: In vivo micronucleus, Test System: Bone marrow polychromatic erythrocytes, Species: Mouse, Strain/Sex: Crl:CD-1(ICR)BR/Male and female, Route: Oral): inactive; negative | mutagenic call (End Point: UDS, Test System: Rat primary hepatocytes, Metabolic Activation: None, Method: Autoradiography): inactive; negative | mutagenic call (Test System: Chinese hamster ovary cells, Strain/Indicator: CHO cells (HPRT)/6-Thioguanine, Metabolic Activation: None, Method: Standard plate): inactive; negative | mutagenic call (Test System: Chinese hamster ovary cells, Strain/Indicator: CHO cells (HPRT)/6-Thioguanine, Metabolic Activation: Rat, Liver, S-9, Aroclor 1254, Method: Standard plate): inactive; negative

O[C@H]1C=Cc2c(ccc3c(Cl)c4ccccc4cc23)[C@@H]1O
mutagenic call (Test System: AMES SALMONELLA TYPHIMURIUM, Strain/Indicator: TA100, Metabolic Activation: RAT, LIVER, S-9, PCB, Method: STANDARD PLATE): active; positive
